Biological target: T1, human Nav 1.7 channels stably expressed in HEK 293 cells (Homo sapiens, UniProt Q15858)
T1 construct: expressed in transfected cells; host or cells: HEK 293
Test: IonWorks Quattro automated patch-clamp, inactivated state block of Nav 1.7
Assay type: cell-based
Settings: double-pulse protocol, HEK 293 cells held at -100 mV, read-out: potency for the Nav 1.7 sodium ion channel (IC50, IonWorks)
Method: IonWorks® Experimental Procedure
Compounds were tested on human Nav 1.7 and Nav 1.5 channels stably expressed in HEK 293 cells. Sodium current measurements on IonWorks Quattro: An automated patch-clamp assay on the IonWorks Quattro platform (Molecular Devices) was used to measure state-dependent inhibition of human Nav 1.7 and Nav 1.5 channels. Cells were sealed on a planar substrate using the Population Patch Plate (PPC) technology. Electrical access was obtained using both nystatin and amphotericin. A double-pulse protocol was used for the determination of IC50 values for inactivated state block. Nav 1.7 and Nav 1.5 expressing cells were voltage clamped at −100 mV and −110 mV, respectively. A depolarizing prepulse to −10 mV (Nav 1.7) or −30 mV (Nav 1.5) for 1000 ms followed by a 10 ms repolarization to ˜100 mV (Nav1.7) or −110 mV (Nav 1.5) was given to generate fractional channel inactivation of ˜50%, followed by a 10 ms test pulse to −10 mV (Nav 1.7) or −30 mV (Nav 1.5) to measure peak current in control conditions and after compound addition. The following recording solutions were used (mM). External: 150 NaCl, 2 CaCl2, 5 KCl, 1 Mg Cl2, 10 HEPES, 12 Dextrose; internal: 120 CsF, 30 CsCl, 10 EGTA, 5 HEPES, 5 NaF, 2 MgCl2.
For all electrophysiology experiments, offline analysis was used to determine percent inhibition as a function of drug concentration. IC50 values were determined by fitting to the Hill equation.
The various compounds in Examples 1 through 4 and Tables 1 through 3 exemplified above were assayed for activity and selectivity using the foregoing IonWorks® technique. The results are reported in the following paragraph in a format expressing the identification of the compound with reference Example and compound (e.g. Ex 1-9 is Example 1, compound 9) followed by the observed potency in nM and the ratio of Nav1.7 potency: Nav1.5 potency as described here. Thus, Ex1-9: 1.7=65/ratio=641 identifies compound Example 1, compound 9 as having 65 nM potency for the Nav 1.7 sodium ion channel (as measured by IonWorks®) and a ratio of 641 Nav 1.7: Nav 1.5 potency, determined by IonWorks® measurement.

T1 sequence (Q15858 whole entry): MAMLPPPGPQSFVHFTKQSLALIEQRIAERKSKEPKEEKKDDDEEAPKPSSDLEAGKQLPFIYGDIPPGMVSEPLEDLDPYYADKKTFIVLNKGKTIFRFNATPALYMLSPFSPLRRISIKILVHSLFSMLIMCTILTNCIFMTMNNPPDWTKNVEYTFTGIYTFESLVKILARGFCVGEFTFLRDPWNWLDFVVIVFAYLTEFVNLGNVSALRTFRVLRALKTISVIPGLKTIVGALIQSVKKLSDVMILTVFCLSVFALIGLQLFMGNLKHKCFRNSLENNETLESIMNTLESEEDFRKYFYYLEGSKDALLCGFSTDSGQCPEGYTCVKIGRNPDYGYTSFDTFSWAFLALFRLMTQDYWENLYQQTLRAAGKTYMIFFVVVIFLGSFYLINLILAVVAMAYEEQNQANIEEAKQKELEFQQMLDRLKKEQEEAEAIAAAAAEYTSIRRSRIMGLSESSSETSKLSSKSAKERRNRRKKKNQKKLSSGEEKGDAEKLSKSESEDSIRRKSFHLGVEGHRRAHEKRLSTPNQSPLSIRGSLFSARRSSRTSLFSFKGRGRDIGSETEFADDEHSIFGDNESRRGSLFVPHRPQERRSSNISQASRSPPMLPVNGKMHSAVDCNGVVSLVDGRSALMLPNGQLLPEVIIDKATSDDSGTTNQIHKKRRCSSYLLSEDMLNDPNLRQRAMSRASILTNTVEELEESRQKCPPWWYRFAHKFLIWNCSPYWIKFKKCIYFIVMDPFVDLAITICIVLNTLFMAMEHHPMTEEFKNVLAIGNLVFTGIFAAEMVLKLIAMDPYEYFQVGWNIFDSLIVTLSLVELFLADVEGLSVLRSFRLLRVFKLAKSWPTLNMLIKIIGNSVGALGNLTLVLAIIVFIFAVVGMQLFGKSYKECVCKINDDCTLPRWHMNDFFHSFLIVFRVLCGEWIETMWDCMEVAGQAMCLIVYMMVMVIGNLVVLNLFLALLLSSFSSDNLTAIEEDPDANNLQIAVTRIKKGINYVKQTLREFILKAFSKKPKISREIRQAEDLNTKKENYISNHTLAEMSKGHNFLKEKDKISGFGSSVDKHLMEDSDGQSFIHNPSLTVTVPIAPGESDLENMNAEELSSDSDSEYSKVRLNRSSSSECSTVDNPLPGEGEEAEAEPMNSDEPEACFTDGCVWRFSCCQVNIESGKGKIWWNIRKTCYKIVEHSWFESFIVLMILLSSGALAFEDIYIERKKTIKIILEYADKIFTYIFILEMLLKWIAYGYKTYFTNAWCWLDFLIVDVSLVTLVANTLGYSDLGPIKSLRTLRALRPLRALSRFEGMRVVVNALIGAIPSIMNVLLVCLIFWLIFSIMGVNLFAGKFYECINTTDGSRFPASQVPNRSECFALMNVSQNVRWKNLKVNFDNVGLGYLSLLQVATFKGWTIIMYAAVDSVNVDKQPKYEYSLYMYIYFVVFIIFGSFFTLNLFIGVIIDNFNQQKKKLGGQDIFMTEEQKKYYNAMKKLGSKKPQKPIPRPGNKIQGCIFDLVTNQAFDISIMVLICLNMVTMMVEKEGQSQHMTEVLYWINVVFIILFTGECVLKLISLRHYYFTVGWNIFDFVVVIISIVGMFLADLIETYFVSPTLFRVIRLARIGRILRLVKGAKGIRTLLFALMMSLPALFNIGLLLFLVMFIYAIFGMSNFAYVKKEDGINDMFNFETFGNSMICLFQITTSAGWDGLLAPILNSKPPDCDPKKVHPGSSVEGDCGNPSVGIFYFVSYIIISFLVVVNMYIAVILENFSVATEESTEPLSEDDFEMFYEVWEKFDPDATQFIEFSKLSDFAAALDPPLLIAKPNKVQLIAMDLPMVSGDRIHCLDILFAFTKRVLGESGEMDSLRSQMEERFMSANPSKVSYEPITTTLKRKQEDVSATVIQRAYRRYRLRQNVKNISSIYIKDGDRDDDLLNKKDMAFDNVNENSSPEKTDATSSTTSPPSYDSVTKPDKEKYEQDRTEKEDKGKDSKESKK

Row | IC50 [nM] | SMILES
1 | 29 | O=S(=O)(Nc1nccs1)c1cc(Cl)c(NCCCCNCC2NCc3ccccc32)cc1F (single isomer, unassigned) [Ex 2-4 Enantiomer A, (R or S)-5-chloro-2-fluoro-4-((4-((isoindolin-1-ylmethyl)amino)butyl)amino)-N-(thiazol-2-yl)benzenesulfonamide]
2 | 21 | O=S(=O)(Nc1nccs1)c1cc(Cl)c(NCCCCNCC2NCc3ccccc32)cc1F (single isomer, unassigned) [Ex 2-4 Enantiomer B, (S or R)-5-chloro-2-fluoro-4-((4-((isoindolin-1-ylmethyl)amino)butyl)amino)-N-(thiazol-2-yl)benzenesulfonamide]
3 | 31 | NCC1CCN1CCCCNc1cc(F)c(S(=O)(=O)Nc2nccs2)cc1Cl (single isomer, unassigned) [Ex 16-52, (R or S)-4-({4-[2-(aminomethyl)-azetidin-1-yl]butyl}amino)-5-chloro-2-fluoro-N-1,3-thiazol-2-ylbenzene-sulfonamide]
4 | 80 | NC1C2CN(CCCCNc3cc(F)c(S(=O)(=O)Nc4nccs4)cc3Cl)CC12 (stereo not shown) [Ex 1-42, 4-{[4-(6-amino-3-azabicyclo[3.1.0]hex-3-yl)butyl]amino}-5-chloro-2-fluoro-N-1,3-thiazol-2-ylbenzenesulfonamide]
5 | 31 | NC1CCCN(CCCCNc2cc(F)c(S(=O)(=O)Nc3nccs3)cc2Cl)CC1 (stereo not shown) [Ex 1-43, 4-{[4-(4-aminoazepan-1-yl)butyl]amino}-5-chloro-2-fluoro-N-1,3-thiazol-2-ylbenzenesulfonamide]
6 | 29 | NC1CN(CCCCNc2cc(F)c(S(=O)(=O)Nc3nccs3)cc2Cl)C1 [Ex 1-44, 4-{[4-(3-aminoazetidin-1-yl)butyl]amino}-5-chloro-2-fluoro-N-1,3-thiazol-2-ylbenzenesulfonamide]
7 | 30 | NCC1CCCN(CCCCNc2cc(F)c(S(=O)(=O)Nc3nccs3)cc2Cl)C1 (stereo not shown) [Ex 1-46, 4-({4-[3-(aminomethyl)piperidin-1-yl]butyl}amino)-5-chloro-2-fluoro-N-1,3-thiazol-2-ylbenzenesulfonamide]
8 | 21 | NCc1ccccc1CNCCCCNc1cc(F)c(S(=O)(=O)Nc2nccs2)cc1Cl [Ex 3-4, 4-((4-((2-(aminomethyl)benzyl)amino)butyl)amino)-5-chloro-2-fluoro-N-(thiazol-2-yl)benzenesulfonamide]
9 | 16 | O=S(=O)(Nc1ncc(F)s1)c1ccc(NCCCCNC[C@@H]2CCCN2)c(Cl)c1 [Ex 7-13, 3-chloro-N-(5-fluoro-1,3-thiazol-2-yl)-4-[(4-{[(2S)-pyrrolidin-2-ylmethyl]amino}butyl)amino]benzenesulfonamide]
10 | 13 | O=S(=O)(Nc1nccs1)c1cc(Cl)c(NCCCCNC[C@@H]2CC[C@H](c3ccccc3)N2)cc1F [Ex 8-3, 5-chloro-2-fluoro-4-{[4-({[(2S,5R)-5-phenylpyrrolidin-2-yl]methyl}-amino)butyl]-amino}-N-1,3-thiazol-2-yl-benzenesulfonamide]
11 | 21 | O=S(=O)(Nc1nccs1)c1cc(Cl)c(NCCCCNC[C@H]2NCC[C@@H]2c2ccccc2)cc1F [Ex 8-6, 5-chloro-2-fluoro-4-{[4-({[(2S,3R)-3-phenylpyrrolidin-2-yl]-methyl}amino)butyl]amino}-N-1,3-thiazol-2-ylbenzenesulfonamide]
12 | 16 | O=S(=O)(Nc1nccs1)c1cc(Cl)c(NCCCCNC[C@@H]2C[C@H](c3ccccc3)CN2)cc1F [Ex 8-13, 5-chloro-2-fluoro-4-{[4-({[(2S,4R)-4-phenylpyrrolidin-2-yl]-methyl}amino)-butyl]amino}-N-1,3-thiazol-2-yl-benzenesulfonamide]
13 | 66 | O=S(=O)(Nc1nccs1)c1cc(Cl)c(NCCCCNC[C@H]2CC(F)(F)CN2)cc1F [Ex 8-15, 5-chloro-4-{[4-({[(2R)-4,4-difluoropyrrolidin-2-yl]-methyl}amino)butyl]amino}-2-fluoro-N-1,3-thiazol-2-yl-benzenesulfonamide]
14 | 29 | O=S(=O)(Nc1cccc(F)n1)c1cc(Cl)c(NCCCCCNC[C@@H]2CCCN2)cc1F [Ex 9-2, (S)-5-chloro-2-fluoro-N-(6-fluoropyridin-2-yl)-4-((5-((pyrrolidin-2-ylmethyl)amino)pentyl)amino)benzenesulfonamide]
15 | 19 | O=S(=O)(Nc1nccs1)c1cc(Cl)c(NCCCCCNCC2CCCCN2)cc1F (stereo not shown) [Ex 9-03, 5-chloro-2-fluoro-4-({5-[(piperidin-2-ylmethyl)-amino]pentyl}amino)-N-1,3-thiazol-2-yl-benzenesulfonamide]
16 | 49 | O=S(=O)(Nc1nccs1)c1cc(Cl)c(NCC(F)(F)CCNC[C@@H]2CCCN2)cc1F [Ex 11-11, 5-chloro-4-[(2,2-difluoro-4-{[(2S)-pyrrolidin-2-ylmethyl]amino}butyl)amino]-2-fluoro-N-1,3-thiazol-2-ylbenzenesulfonamide]

Second part, the molecule before the results:

Row | SMILES | IC50 [nM]
17 | O=S(=O)(Nc1nccs1)c1cc(Cl)c(NCCCCNCC2Cc3ccccc3CN2)cc1F (single isomer, unassigned) [Ex 1-19, (S or R)-5-chloro-2-fluoro-4-({4-[(1,2,3,4-tetrahydroisoquinolin-3-ylmethyl)amino]butyl}amino)-N-1,3-thiazol-2-ylbenzenesulfonamide] | 10
18 | O=S(=O)(Nc1nccs1)c1cc(Cl)c(NCCCCN[C@H]2CN[C@H](c3ccccc3)C2)cc1F [Ex 1-8, 5-chloro-2-fluoro-4-[(4-{[(3R,5S)-5-phenylpyrrolidin-3-yl]amino}butyl)amino]-N-1,3-thiazol-2-ylbenzenesulfonamide] | 11
19 | O=S(=O)(Nc1nccs1)c1cc(Cl)c(NCCCCNCC2Cc3ccccc3CN2)cc1F (stereo not shown) [Ex 1-9, 5-chloro-2-fluoro-4-({4-[(1,2,3,4-tetrahydroisoquinolin-3-ylmethyl)amino]butyl}amino)-N-1,3-thiazol-2-ylbenzenesulfonamide] | 13
20 | N[C@H]1CCN(CCCCNc2cc(F)c(S(=O)(=O)Nc3nccs3)cc2Cl)C1 [Ex 1-11, 4-({4-[(3S)-3-aminopyrrolidin-1-yl]butyl}amino)-5-chloro-2-fluoro-N-1,3-thiazol-2-ylbenzenesulfonamide] | 19
21 | O=S(=O)(Nc1nccs1)c1cc(Cl)c(NCCCCN2CCCC23CCNC3)cc1F (stereo not shown) [Ex 1-12, 5-chloro-4-{[4-(1,7-diazaspiro[4.4]non-1-yl)butyl]amino}-2-fluoro-N-1,3-thiazol-2-ylbenzenesulfonamide] | 66
22 | O=S(=O)(Nc1nccs1)c1cc(Cl)c(NCCCCN2CC3CCCNC3C2)cc1F (stereo not shown) [Ex 1-13, 5-chloro-2-fluoro-4-{[4-(octahydro-6H-pyrrolo[3,4-b]pyridin-6-yl)butyl]amino}-N-1,3-thiazol-2-ylbenzenesulfonamide] | 16
23 | O=S(=O)(Nc1nccs1)c1cc(Cl)c(NCCCCN2CC[C@@H]3CCNC[C@@H]32)cc1F [Ex 1-21, 5-chloro-2-fluoro-4-({4-[(3a5,7aR)-octahydro-1H-pyrrolo[2,3-c]pyridin-1-yl]butyl}amino)-N-1,3-thiazol-2-ylbenzenesulfonamide] | 21
24 | C[C@H](CNC1CCOCC1)NCCCCNc1cc(F)c(S(=O)(=O)Nc2nccs2)cc1Cl [Ex 1-26, 5-chloro-2-fluoro-4-[(4-{[(1R)-1-methyl-2-(tetrahydro-2H-pyran-4-ylamino)ethyl]amino}butyl)amino]-N-1,3-thiazol-2-ylbenzenesulfonamide] | 30
25 | NCC(NCCCCNc1cc(F)c(S(=O)(=O)Nc2nccs2)cc1Cl)c1ccccc1 (stereo not shown) [Ex 1-32, 4-({4-[(2-amino-1-phenylethyl)amino]butyl}amino)-5-chloro-2-fluoro-N-1,3-thiazol-2-ylbenzenesulfonamide] | 16
26 | O=S(=O)(Nc1nccs1)c1cc(Cl)c(NCCCCN2CCC3(CCNC3)C2)cc1F (stereo not shown) [Ex 1-38, 5-chloro-4-{[4-(2,7-diazaspiro[4.4]non-2-yl)butyl]amino}-2-fluoro-N-1,3-thiazol-2-ylbenzenesulfonamide] | 44
27 | O=S(=O)(Nc1nccs1)c1cc(Cl)c(NCCCCN2CCC23CCCNC3)cc1F (stereo not shown) [Ex 1-40, 5-chloro-4-{[4-(1,6-diazaspiro[3.5]non-1-yl)-butyl]amino}-2-fluoro-N-1,3-thiazol-2-yl-benzenesulfonamide] | 110
28 | NCC1(c2ccccc2)CCN(CCCCNc2cc(F)c(S(=O)(=O)Nc3nccs3)cc2Cl)CC1 [Ex 1-45, 4-({4-[4-(aminomethyl)-4-phenylpiperidin-1-yl]butyl}amino)-5-chloro-2-fluoro-N-1,3-thiazol-2-ylbenzenesulfonamide] | 110

Source: US10968210B2, “Diamino-alkylamino-linked arylsulfonamide compounds with selective activity in voltage-gated sodium channels” (Merck Sharp & Dohme Corp., priority 2016, dated 2021)
